# Key:
# [1] = system: CHO cells; assay: Saponin-permeabilized cell assay for cytoskeleton modulators (LID biosensor); assay type: cell-based, Chinese hamster; conditions: saponin 67 ug/ml
# Description: The method involves the use of pore-forming reagents (e.g, saponin) to generate permeabilized cells which permit soluble proteins to diffuse away. It is known that treatment of the cells with many pore-forming reagents leads to permeabilized cells. Since intracellular macromolecules are highly organized within the cytoplasm of mammalian cells through direct binding to cytoskeletal elements, the permeabilized cells still retain most of the biological functions of living cells by sequestration of intracellular machinery through the cytoskeleton super-assembled structure, although the saponin-treated cells undergo the loss of some portions of biomacromolecules. However, upon disruption of microfilaments there is a dramatic reduction of protein synthesis accompanied by release of these translation components from the cells. Also, many other sequestered biomacromolecules are released from these permeabilized cells after disrupting the cytoskeleton structure. These further released materials from the permeabilized cells result in the loss in mass; thus resulting in the changes in effective refractive index of the cell layer on the surface of a LID biosensor which can be detected by LID biosensors. Thus, the changes obtained using optical biosensors can be used as an indicator of modulators that interfere with the cytoskeleton structure. In one embodiment, the present methods can be used to screen modulators that interfere with the cytoskeleton structure using the method 2500 shown in FIG. 25. In accordance with method 2500 one can monitor the mass redistribution due to pore formation of cell surface membranes induced by pore-forming reagents such as saponin in living cells 1008 by: (a) providing an optical LID biosensors 1004 (step 2502); (b) placing cells 1008 in a cell medium onto the said sensor 1004 (step 2504); (c) Optionally applying a buffer solution (step 2506); (d) applying a solution containing a compound into the cell mediums located on the top surfaces 1010 of covered optical LID biosensors 1004 (step 2508); applying a solution containing a pore-forming reagent (step 2510); and (e) interrogating the covered optical LID biosensors 1010 to monitor the time dependent optical responses which indicate mass redistributions within the permeabilized cells 1008 (step 2512). A Pore-forming reagent is a chemical or biological compound or composition that can result in the formation of pores in cell surface membranes when the cells are exposed to the reagent.
# The pore-forming regents include detergents such as saponin and filipin, or toxin such as digitonin or streptolysin O. It is well known that treatment of the cells with these reagents can result in the pore formation in cell surface membrane; the resulted permeabilized cells can release a certain amount of intracellular material, mainly soluble proteins. However, there are a great number of bio-materials that still stay with these permeabilized cells due to the sequestration by directly binding or association with the cytoskeleton structure. As a matter of fact, these permeabilized cells retain many of the biological functions of living cells such as protein synthesis.
# FIG. 50 presents the dose-dependent responses of CHO cells adherent on the surface of a LID sensor in response to saponin as a function of time. After the addition of saponin at different concentrations, a different response is evident. At low concentration, there is almost no response. […]
# [2] = system: EGF-induced response of quiescent A431 cells; assay: Effect of compound pretreatment on EGF-induced DMR response; assay type: cell-based, human
# In short: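 A431 cells were made quiescent by ≥16 h culture in no or ~0.1% FBS medium. After two HBSS/20 mM HEPES pH 7.4 buffer additions ≥15 min apart, compound was added and then stimulus. Real-time dynamic mass redistribution was tracked by resonant waveguide biosensor with angular interrogation.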
# [3] = target: T1, rat muscarinic receptor subtype 1 (Rattus norvegicus, UniProt P08482); assay: GPCR agonist-induced mass redistribution in M1 CHO cells (optical LID); assay type: cell-based
# T1 construct: expressed in transfected cells; host or cells: CHO (M1 CHO)
# T1 sequence (P08482 1-460): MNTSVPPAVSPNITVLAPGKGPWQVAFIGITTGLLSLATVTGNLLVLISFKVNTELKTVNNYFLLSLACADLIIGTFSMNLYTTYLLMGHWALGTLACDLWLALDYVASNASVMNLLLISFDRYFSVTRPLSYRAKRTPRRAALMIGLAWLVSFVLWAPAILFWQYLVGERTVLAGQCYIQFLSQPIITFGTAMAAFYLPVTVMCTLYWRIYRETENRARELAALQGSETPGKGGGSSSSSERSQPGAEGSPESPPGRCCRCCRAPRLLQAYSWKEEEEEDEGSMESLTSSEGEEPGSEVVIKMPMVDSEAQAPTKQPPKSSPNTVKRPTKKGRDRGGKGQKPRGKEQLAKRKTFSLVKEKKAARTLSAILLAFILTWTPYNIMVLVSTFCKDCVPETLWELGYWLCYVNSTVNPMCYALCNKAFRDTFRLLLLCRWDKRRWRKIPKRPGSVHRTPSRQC
# [4] = system: CHO cells; assay: GPCR agonist-induced mass redistribution (optical LID); assay type: cell-based, Chinese hamster
# Description: These translocations can be located on a surface of an optical LID biosensor as disclosed herein. The particular data shown in FIGS. 52-60 was obtained using an optical waveguide grating sensor system and LID microplates (Nb2O5 plates), manufactured by Corning Incorporated. […] It is known that CHO cells 1008 endogenously express beta adrenergic receptors, alpha2-adrenergic receptors, P2Y receptors, as well as beta-arrestin and GRKs. It is also known that muscarinic receptors are endogenously expressed at very low level in the CHO cells 1008. In this experiment, approximately ˜5×10^4 CHO cells 1008 were placed within each well of a microplate that contained an array of optical LID biosensors 1004. The CHO cells 1008 were then cultured in 150 μl serum medium for 24 hours to ensure that the CHO cells 1008 became adherent to the substrate surface 1010. […] Since muscarinic receptors are endogenously expressed at very low level in CHO cells, oxotremorine M, agonist for muscarinic receptors, served as a control. Each of these agonists was directly applied to a different one of the wells which contained the serum medium. The optical responses were then collected by the optical LID system.
# [5] = system: endogenous GPCRs in A431 cells; assay: DMR optical biosensor profiling of GPCR agonists; assay type: cell-based, human; conditions: quiescent A431; first class = Gq-type, second = Gs-type, third = Gi-type, fourth = no significant DMR
# Experimental: Human epidermoid carcinoma A431 cells (American Type Cell Culture) were grown in Dulbecco's modified Eagle's medium (DMEM) supplemented with 10% fetal bovine serum (FBS), 4.5 g/liter glucose, 2 mM glutamine, and antibiotics. ˜3-7.5×10^4 cells at passage 3 to 5 suspended in 200 μl the DMEM medium containing 10% FBS were placed in each well of a 96 well microplate. Similarly ˜1-2×10^4 cells in 50 μl the growth medium were placed in each well of a 384 well microplate. After cell seeding, the cells were cultured at 37° C. under air/5% CO2 until ˜95% confluency was reached (˜2-4 days).
# A Corning® Epic™ angular interrogation system with transverse magnetic or p-polarized TM0 mode was used for all studies. Several extra actions were taken to minimize the unwanted effects. First, to minimize the bulk index changes when a compound solution is introduced, 1×HBSS buffer without any probenecid was used to dilute all the compounds, whereas the DMEM buffer only was used to starve the cells. Secondly, to facilitate the cell responses as well as to rapidly reach a steady state when the sensor plates having cells were placed in the system at room temperature, the cells were pre-starved with the DMEM buffer without any FBS for a prolonged period of time (typically 20±2 hours), and the quiescent cells were directly used for assays without any wash.
# For kinetics measurements, the cultured cells (˜95% confluency) were starved for about 20 hours with DMEM alone at 37° C. under air/5% CO2. Afterwards, the sensor microplate containing cells was placed into the optical system, and the cell responses were recorded before and after addition of a solution at room temperature. […] All studies were carried out at room temperature with the lid of the microplate on except for a short period of time (˜seconds) when the solution was introduced, in order to minimize the effect of temperature fluctuation and evaporative cooling. The unit of the responses indicated herein was a change in pixel of the central position of the resonant band of each sensor as imaged by a CCD camera; 1 unit equals to ˜5.82×10^−4 refractive index changes, based on an experimental normalization protocol, which uses the concentration-dependent responses of both glycerol and dimethyl sulfoxide.
# The panel of agonists were used individually to stimulate quiescent A431 cells. The dose-dependent and kinetic responses were recorded and analyzed. In a typical kinetic measurement, the angular shift of resonant lights of each sensor induced by an agonist is monitored in real time and plotted as a function of time. An increased signal (P-DMR) means an increase in the amount of bio-molecules within the sensing volume (˜120 nm); conversely, a decreased signal (N-DMR) means a decrease in the amount of bio-molecules within the sensing volume. The sensing volume, also known as penetration depth, is an intrinsic property of the coupled light within the waveguide film, which creates an evanescent wave extending into the cell layer and the medium.
# [6] = system: quiescent A431 cells; assay: GPCR agonist-induced DMR and EGFR transactivation; assay type: cell-based, human; conditions: for GPCR agonist-induced DMR response curve: bradykinin 100 nM, carbachol 10 μM, clonidine 1 μM
# Experimental: Both A431 and CHO-K1 cells were grown in Dulbecco's modified Eagle's medium (DMEM) supplemented with 10% fetal calf serum, 100 μg/ml penicillin, and 100 μg/ml streptomycin. For cell culture, certain numbers of cells (2×10^5 to 1×10^6), either A431 or CHO-K1, were suspended in […] medium were placed in each well of a 96 well Corning Epic Biosensor microplate, and were cultured at 37° C. in air/5% CO2 for certain time until the cell density reached ˜90% and above (unless specified). The resulted cells were termed as “profilerating” cells. The “quiescent” cells were obtained by culturing the profilerating cells of desired confluencies with a medium containing no or little (˜0.1% fetal bovine serum (FBS)) for at least 16 hours.
# During the assays, the cells in 100 μl medium were subject to two 25 μl HBSS buffer containing 20 mM HEPES, pH 7.4, each separated by at least 15 minutes before 50 μl stimulus-containing solution was applied. During all these steps, a parallel angular interrogation system was used to monitor the real time kinetics of cellular responses. For compound effect studies, a modified protocol was used which starts with 50 μl medium, and subject to sequential treatment: 25 μl HBSS buffer twice (each separated by at least 15 minutes), 50 μl compound solution and finally 50 μl stimulus-containing solution.
# [7] = target: T2, protease activated receptors PAR1 and PAR2 (Homo sapiens, UniProt P55085); assay type: cell-based
# T2 construct: A431 cells which endogenously express PAR1 and PAR2; endogenous in cells; host or cells: A431
# T2 sequence (P55085 26-397): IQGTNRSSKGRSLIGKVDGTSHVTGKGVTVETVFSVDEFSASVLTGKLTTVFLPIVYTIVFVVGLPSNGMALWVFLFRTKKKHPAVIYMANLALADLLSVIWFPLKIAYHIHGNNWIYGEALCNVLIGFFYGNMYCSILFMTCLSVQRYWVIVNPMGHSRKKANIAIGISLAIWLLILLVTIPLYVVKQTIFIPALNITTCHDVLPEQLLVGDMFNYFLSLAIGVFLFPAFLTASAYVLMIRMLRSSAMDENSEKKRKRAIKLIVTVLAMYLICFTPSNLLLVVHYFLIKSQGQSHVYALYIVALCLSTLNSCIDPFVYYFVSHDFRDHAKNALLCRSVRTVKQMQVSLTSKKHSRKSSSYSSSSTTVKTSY
# In short: (§1)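 A431 cells at passage 3-5 grown in DMEM/10% FBS at 37° C, 5% CO2 to ~95% confluency (~2-4 days). Compounds and PAR agonists prepared in 1×HBSS to match the refractive index of the cell medium for dynamic mass redistribution (DMR) read-out.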
# [8] = system: protease activated receptors PAR1 and PAR2; assay type: cell-based, human; conditions: interval about 1 hour
# In short: as §1
# [9] = system: protease activated receptors PAR1 and PAR2; assay: Fluo-3 Ca2+ mobilization assay with PAR agonists; assay type: cell-based, human
# Experimental: A431 at passage 3 to 5 were grown in Costar™ 96 well clear cell culture microplates until ˜95% confluency, washed twice and starved overnight with the DMEM only, washed with 1×HBSS (1× regular Hank's balanced salt solution, 20 mM HEPES buffer, pH 7.0) in the presence of 2.5 mM probenicid, and labeled in the same buffer containing 4 μM Fluo-3 for 1 hour at room temperature. The cells were then washed twice with buffer, maintained with 100 μl 1×HBSS containing 2.5 mM probenicid. The assay was initiated by transferring 50 μl PAR agonist solution to the cell plate, and calcium signal was recorded over 6 minutes with a 6 sec interval using HTS7000 BioAssay Reader (PerkinElmer Life Science, Boston, Mass.). The assays were carried out at room temperature in order to allow direct comparison with optical sensing data.
compound,measurement,setting,value
dynamin inhibitory peptide [DIP],Effect of compound pre-treatment on saponin-induced response (loss of biomaterials),[1],show no effect on a saponin-induced response
same,Effect of pre-treatment on EGF-induced P-DMR and N-DMR signals,"[2]; starved A431 cells, 8 nM EGF, 30-minute pretreatment, GH 0.5 ng/ml, PD98059 0.1 mM, PP1 1 μM, wortmannin 0.1 μM, DIP 50 μM","totally blocks the N-DMR signal, but slightly increases the P-DMR signal with much slower kinetics"
same,Increase of total P-DMR signal in presence vs absence of compound,"[2]; starved A431 cells, EGF, DIP 50 μM",50%
same,Effect of pre-incubation on NECA-induced response,"[3]; DIP 50 μM, 45 minutes, NECA 10 μM, M1 CHO",little effect on NECA-induced response
same,Effect of pre-incubation on clonidine-induced response,"[3]; DIP 50 μM, 45 minutes, clonidine 10 μM, M1 CHO",almost totally eliminates the clonidine-induced mass distribution response
same,Effect of pre-incubation on oxotremorine M-induced response,"[3]; DIP 50 μM, 45 minutes, oxotremorine M 10 μM, M1 CHO",almost totally eliminates the oxotremorine M-induced mass distribution responses in both cell lines
same,Effect of pre-incubation on NECA-induced response,"[4]; DIP 50 μM, 45 minutes, NECA 10 μM, CHO",little effect on NECA-induced response
same,Effect of pre-incubation on clonidine-induced response,"[4]; DIP 50 μM, 45 minutes, clonidine 10 μM, CHO",almost totally eliminates the clonidine-induced mass distribution response
same,Effect of pre-incubation on oxotremorine M-induced response,"[4]; DIP 50 μM, 45 minutes, oxotremorine M 10 μM, CHO",almost totally eliminates the oxotremorine M-induced mass distribution responses in both cell lines
Clc1cccc(Cl)c1N=C1NCCN1 [clonidine],Class of optical signature (DMR) induced by agonist,[5],did not exhibited any significant DMR signals
same,GPCR agonist-induced DMR response curve,[6],responses with almost identical features as those induced by low concentrations (2-8 nM) of EGF
"C[N+](C)(C)CCOC(N)=O [Carbachol, carbachol]",GPCR agonist-induced DMR response curve,[6],responses with almost identical features as those induced by low concentrations (2-8 nM) of EGF
C[N+](C)(C)CC#CCN1CCCC1=O [oxotremorine M],Ligand-induced response in M1-CHO cells,"[3]; 10 μM, compared with CHO cells",significantly larger responses in M1-CHO cells
same,Agonist-induced optical response,"[4]; ATP 100 μM, clonidine 10 μM, epinephrine 100 μM, oxotremorine M 10 μM",caused almost no cell response
"SLIGLR [SLIGLR-amide, PAR2-AP]",Class of optical signature (DMR) induced by agonist,[5],first class of optical signatures
same,DMR signal after preceding stimulation with thrombin,[7],induced the DMR signal similar to that obtained without the preceding stimulation
same,Effect of preceding stimulation on trypsin-induced DMR signal,[8],significantly suppresses but not completely eliminates the trypsin-induced DMR signal
same,Concentration required to induce a maximal response,[9]; [Ca2+]i,20 µM
same,Effect of preceding stimulation on trypsin-induced [Ca2+]i elevation,"[9]; interval 6 min, 200 nM trypsin",significantly attenuated but not completely eliminates the trypsin-induced [Ca^2+]i elevation
same,Maximal [Ca2+]i elevation,"[9]; quiescent A431, Fluo-3",64±3.7%
same,EC50,"[9]; quiescent A431, Fluo-3, read-out: EC50 of [Ca2+]i increase",2.5 ± 0.3 µM
"COc1cc2ncnc(Nc3cccc(Cl)c3)c2cc1OC [AG1478, tyrphostin AG1478]",IC50,[2]; read-out: IC50 for suppression of EGF-induced response (amplitude of N-DMR signal),~0.194 µM
same,Effect of pretreatment on bradykinin-induced response,[6]; AG1478 10 μM,can only partially attenuate the response
same,Effect of pretreatment on carbachol- and clonidine-induced response,[6]; AG1478 10 μM,"totally abolished the N-DMR phase, and significantly reduced the kinetics of the P-DMR phase"

# From US8852876B2, “Label free biosensors and cells” (Corning Incorporated, priority 2008, dated 2014)
